Results taken from US10364212B2 (F.I.S.—FABBRICA ITALIANA SINTETICI S.P.A., priority 2016, dated 2019).
Values joined by “and” are separate entries in the source; they are usually repeats but may differ in a detail not shown here. Equal values may be shown once. “Also recorded” adds a separate entry of the source.

Tests used:
Type in all cases: physicochemical
[1] = Kinetic solubility study at pH 4.5 (acetic acid/sodium acetate buffer), HPLC area
Experimental: (§1) The filtered solid was analyzed by XRPD.
Solubility at a slightly acid medium was determined at pH 4.5 buffer used was a mixture acetic acid/sodium acetate prepared according to USP specifications. […]

[2] = Kinetic solubility study in water, HPLC area of Enclomiphene peak;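 for HPLC a/a: suspension in 24 mL Water and the filtered mother liquor analysed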;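 for average HPLC a/a: suspension in 24 mL Water and the filtered mother liquor analysed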
Experimental: as §1
These HPLC conditions were used to perform solubility analysis.

[3] = Hygroscopicity by DVS (Dynamic Vapour Sorption); settings: for water uptake / moisture sorption: at 95% RH (0-95% RH); for hygroscopicity, comparison of batches 722 and 723: between 0 and 65% RH
Experimental: This is a gravimetric technique that measures how much water is absorbed or desorbed by a sample at different relative humidity (RH). At each RH, the sample mass must be allowed to reach gravimetric equilibrium (or surpassed time limit) before progressing to the next humidity level. Sorption and desorption isotherms will be performed at 25° C. over a range of 0-95% RH. The type of sorption isotherm is determined by the pore size and surface character of the material.

CCN(CC)CCOc1ccc(/C(=C(/Cl)c2ccccc2)c2ccccc2)cc1.O=C(O)CC(O)(CC(=O)O)C(=O)O [Enclomiphene citrate having needle crystals] [Ethanamine, 2-[4-[(1E)-2-chloro-1,2-diphenylethenyl]phenoxy]-N,N-diethyl-, 2-hydroxy-1,2,3-propanetricarboxylate (1:1)]
Average a/a ([1]; pH 4.5, 0 min): 0 a/a
HPLC a/a ([1]; pH 4.5, 0 min, replicate 1): 0 a/a
HPLC a/a ([1]; pH 4.5, 0 min, replicate 2): 0 a/a
Average a/a ([1]; pH 4.5, 15 min): 4135 a/a
HPLC a/a ([1]; pH 4.5, 15 min, replicate 1): 3941 a/a
HPLC a/a ([1]; pH 4.5, 15 min, replicate 2): 4330 a/a
Average a/a ([1]; pH 4.5, 45 min): 4024 a/a
HPLC a/a ([1]; pH 4.5, 45 min, replicate 1): 3978 a/a
HPLC a/a ([1]; pH 4.5, 45 min, replicate 2): 4070 a/a
Average a/a ([1]; pH 4.5, 90 min): 5109 a/a
HPLC a/a ([1]; pH 4.5, 90 min, replicate 1): 4889 a/a
HPLC a/a ([1]; pH 4.5, 90 min, replicate 2): 5329 a/a
Average a/a ([1]; pH 4.5, 180 min): 5079 a/a
HPLC a/a ([1]; pH 4.5, 180 min, replicate 1): 5098 a/a
HPLC a/a ([1]; pH 4.5, 180 min, replicate 2): 5060 a/a
solubility at pH 4.5 compared with Enclomiphene citrate having non-needle crystals ([1]; pH 4.5 buffer, listed as Enclomiphene citrate having needle shaped crystal habit): four times higher
average HPLC a/a ([2]; 0 min): 0 a/a
HPLC a/a ([2]; 0 min, replicate 1): 0 a/a
HPLC a/a ([2]; 0 min, replicate 2): 0 a/a
HPLC a/a ([2]; 0 min, replicate 3): 0 a/a
average HPLC a/a ([2]; 15 min): 5152 a/a
HPLC a/a ([2]; 15 min, replicate 1): 4099 a/a
HPLC a/a ([2]; 15 min, replicate 2): 6104 a/a
HPLC a/a ([2]; 15 min, replicate 3): 3273 a/a
average HPLC a/a ([2]; 45 min): 4962 a/a
HPLC a/a ([2]; 45 min, replicate 1): 5206 a/a
HPLC a/a ([2]; 45 min, replicate 2): 5457 a/a
HPLC a/a ([2]; 45 min, replicate 3): 3225 a/a
average HPLC a/a ([2]; 90 min): 5334 a/a
HPLC a/a ([2]; 90 min, replicate 1): 5085 a/a
HPLC a/a ([2]; 90 min, replicate 2): 5426 a/a
HPLC a/a ([2]; 90 min, replicate 3): 2988 a/a
average HPLC a/a ([2]; 180 min): 4126 a/a
HPLC a/a ([2]; 180 min, replicate 1): 4120 a/a
HPLC a/a ([2]; 180 min, replicate 2): 5327 a/a
HPLC a/a ([2]; 180 min, replicate 3): 3208 a/a
solubility in water compared with Enclomiphene citrate having non-needle shaped crystal habit ([2]; listed as Enclomiphene citrate having needle shaped crystal habit): almost double; also recorded: almost two times
water uptake / moisture sorption ([3]; DVS, 25° C., listed as batch 723): 2.33 % weight and 2.3 % weight
hygroscopicity, comparison of batches 722 and 723 ([3]; DVS): identical

CCN(CC)CCOc1ccc(/C(=C(/Cl)c2ccccc2)c2ccccc2)cc1.O=C(O)CC(O)(CC(=O)O)C(=O)O [Enclomiphene citrate having non-needle crystals] [Ethanamine, 2-[4-[(1E)-2-chloro-1,2-diphenylethenyl]phenoxy]-N,N-diethyl-, 2-hydroxy-1,2,3-propanetricarboxylate (1:1), reference compound]
Average a/a ([1]; pH 4.5, 0 min): 0 a/a
HPLC a/a ([1]; pH 4.5, 0 min, replicate 1): 0 a/a
HPLC a/a ([1]; pH 4.5, 0 min, replicate 2): 0 a/a
Average a/a ([1]; pH 4.5, 15 min): 1185 a/a
HPLC a/a ([1]; pH 4.5, 15 min, replicate 1): 1294 a/a
HPLC a/a ([1]; pH 4.5, 15 min, replicate 2): 1077 a/a
Average a/a ([1]; pH 4.5, 45 min): 924 a/a
HPLC a/a ([1]; pH 4.5, 45 min, replicate 1): 907 a/a
HPLC a/a ([1]; pH 4.5, 45 min, replicate 2): 941 a/a
Average a/a ([1]; pH 4.5, 90 min): 1095 a/a
HPLC a/a ([1]; pH 4.5, 90 min, replicate 1): 1279 a/a
HPLC a/a ([1]; pH 4.5, 90 min, replicate 2): 912 a/a
Average a/a ([1]; pH 4.5, 180 min): 1052 a/a
HPLC a/a ([1]; pH 4.5, 180 min, replicate 1): 1008 a/a
HPLC a/a ([1]; pH 4.5, 180 min, replicate 2): 1096 a/a
average HPLC a/a ([2]; 0 min): 0 a/a
HPLC a/a ([2]; 0 min, replicate 1): 0 a/a
HPLC a/a ([2]; 0 min, replicate 2): 0 a/a
HPLC a/a ([2]; 0 min, replicate 3): 0 a/a
average HPLC a/a ([2]; 15 min): 2858 a/a
HPLC a/a ([2]; 15 min, replicate 1): 1819 a/a
HPLC a/a ([2]; 15 min, replicate 2): 3483 a/a
HPLC a/a ([2]; 15 min, replicate 3): 3273 a/a
average HPLC a/a ([2]; 45 min): 3226 a/a
HPLC a/a ([2]; 45 min, replicate 1): 3083 a/a
HPLC a/a ([2]; 45 min, replicate 2): 3370 a/a
HPLC a/a ([2]; 45 min, replicate 3): 3225 a/a
average HPLC a/a ([2]; 90 min): 2772 a/a
HPLC a/a ([2]; 90 min, replicate 1): 3229 a/a
HPLC a/a ([2]; 90 min, replicate 2): 2099 a/a
HPLC a/a ([2]; 90 min, replicate 3): 2988 a/a
average HPLC a/a ([2]; 180 min): 3265 a/a
HPLC a/a ([2]; 180 min, replicate 1): 2991 a/a
HPLC a/a ([2]; 180 min, replicate 2): 3597 a/a
HPLC a/a ([2]; 180 min, replicate 3): 3208 a/a
water uptake / moisture sorption ([3]; DVS, 25° C., listed as batch 722): 6 % weight
moisture sorption ([3]; DVS, 25° C., between 0% and 65% RH): 2 % weight
hygroscopicity, comparison of batches 722 and 723 ([3]; DVS): identical
water absorption at high humidity ([3]; humidity higher than 65% RH (FIG. 9)): absorbs relevant amounts of water
